From patent US5043450A, “8-alkoxyquinolonecarboxylic acid and salts thereof” (priority 1986, dated 1991)
In brackets after ≈: the same amount, converted by molar mass.

Assays:
Assay in all cases: Antibacterial spectra, MIC
Type in all cases: cell-based
[1] = test system: P. aeruginosa IFO 12689; conditions: Pseudomonas aeruginosa, IFO12689; 10^6 cells/ml; Gram -; read-out: MIC
[2] = test system: Shigella sonnei IID 969; conditions: IID969, 10^6 cells/ml, Gram -
Experimental: (§1) The antibacterial test was carried out according to the method designated by Japan Society of Chemotherapy.

[3] = test system: Proteus vulgaris IFO 3167; conditions: IFO3167, 10^6 cells/ml, Gram -
Experimental: as §1

[4] = test system: E. faecalis IID 682; conditions: Enterococcus faecalis, IID682; 10^6 cells/ml; Gram +
Experimental: as §1

[5] = test system: E. coli ML 4707; conditions: Escherichia coli, ML4707; 10^6 cells/ml; Gram -
Experimental: as §1

[6] = test system: Streptococcus pyogenes (S-8); conditions: 10^6 cells/ml, Gram +
Experimental: as §1

[7] = test system: Pst. micros UPI 5464-1; conditions: Parvimonas micra, UPI54641; 10^6 cells/ml; Gram +; read-out: MIC
[8] = test system: B. vulgatus KYA 29327; conditions: Phocaeicola vulgatus, KYA29327; 10^6 cells/ml; Gram -; read-out: MIC
[9] = test system: Klebsiella pneumoniae KY(GN)6445
[10] = test system: Staphylococcus aureus 209 P; conditions: 10^6 cells/ml, Gram +, read-out: MIC

Which results are given for `CCOc1c(N2CCNCC2)c(F)cc2c(=O)c(C(=O)O)cn(C3CC3)c12` [Exp. 18, 1-cyclopropyl-6-fluoro-1,4-dihydro-8-ethoxy-4-oxo-7-(1-piperazinyl)-3-quinolinecarboxylic acid]?
MIC [1]: 3.13 µg/mL (≈ 8.34 µM); MIC [2]: ≤ 0.05 µg/mL; MIC [3]: ≤ 0.05 µg/mL; MIC [4]: 1.56 µg/mL; MIC [5]: ≤ 0.05 µg/mL; MIC [6]: 1.56 µg/mL; MIC [7]: 0.78 µg/mL (≈ 2.08 µM); MIC [8]: 12.5 µg/mL (≈ 33.3 µM); MIC [9]: ≤ 0.05 µg/mL; MIC [10]: 0.2 µg/mL (≈ 0.533 µM)
